Source: PubChem BioAssay (NCI)
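Results reflect a 48-hour exposure of cells in 96-well plates to compound at five concentrations. At the GI50, growth is halved. TGI marks complete inhibition of growth.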

Experiments:
Assay in all cases: DTP human tumour cell line panel, 48 h
MOLT-4 leukemia = test system: MOLT-4 leukemia
NCI-H226 lung = test system: NCI-H226 lung
NCI-H23 lung = test system: NCI-H23 lung
NCI-H460 lung = test system: NCI-H460 lung
NCI-H522 lung = test system: NCI-H522 lung
OVCAR-3 ovarian = test system: OVCAR-3 ovarian
OVCAR-4 ovarian = test system: OVCAR-4 ovarian
OVCAR-5 ovarian = test system: OVCAR-5 ovarian
OVCAR-8 ovarian = test system: OVCAR-8 ovarian
PC-3 prostate = test system: PC-3 prostate
RPMI-8226 leukemia = test system: RPMI-8226 leukemia
RXF 393 renal = test system: RXF 393 renal
SF-268 CNS = test system: SF-268 CNS
SF-295 CNS = test system: SF-295 CNS
SF-539 CNS = test system: SF-539 CNS
SK-MEL-2 melanoma = test system: SK-MEL-2 melanoma
SK-MEL-28 melanoma = test system: SK-MEL-28 melanoma
SK-MEL-5 melanoma = test system: SK-MEL-5 melanoma
SK-OV-3 ovarian = test system: SK-OV-3 ovarian
SN12C renal = test system: SN12C renal
SNB-75 CNS = test system: SNB-75 CNS
SR leukemia = test system: SR leukemia
SW-620 colon = test system: SW-620 colon
T-47D breast = test system: T-47D breast
TK-10 renal = test system: TK-10 renal
U251 CNS = test system: U251 CNS
UACC-257 melanoma = test system: UACC-257 melanoma
UACC-62 melanoma = test system: UACC-62 melanoma
UO-31 renal = test system: UO-31 renal

O=C(/C=C/c1ccc(F)cc1)c1nc2ccccc2n1Cc1ccc(Br)cc1
TGI (MOLT-4 leukemia): 8.96 µM
GI50 (NCI-H226 lung): 2.96 µM
TGI (NCI-H226 lung): 13.1 µM
GI50 (NCI-H23 lung): 1.95 µM
TGI (NCI-H23 lung): 4.37 µM
GI50 (NCI-H460 lung): 1.89 µM
TGI (NCI-H460 lung): 4 µM
GI50 (NCI-H522 lung): 2.17 µM
TGI (NCI-H522 lung): 4.68 µM
GI50 (OVCAR-3 ovarian): 1.76 µM
TGI (OVCAR-3 ovarian): 3.42 µM
GI50 (OVCAR-4 ovarian): 4.3 µM
TGI (OVCAR-4 ovarian): 51.4 µM
GI50 (OVCAR-5 ovarian): 1.94 µM
TGI (OVCAR-5 ovarian): 4.16 µM
GI50 (OVCAR-8 ovarian): 2.26 µM
TGI (OVCAR-8 ovarian): 5.51 µM
GI50 (PC-3 prostate): 3.37 µM
TGI (PC-3 prostate): 13.7 µM
GI50 (RPMI-8226 leukemia): 2.29 µM
TGI (RPMI-8226 leukemia): 6.87 µM
GI50 (RXF 393 renal): 1.48 µM
TGI (RXF 393 renal): 2.89 µM
GI50 (SF-268 CNS): 3.58 µM
TGI (SF-268 CNS): 67.8 µM
GI50 (SF-295 CNS): 2.14 µM
TGI (SF-295 CNS): 5.29 µM
GI50 (SF-539 CNS): 1.91 µM
TGI (SF-539 CNS): 3.8 µM
GI50 (SK-MEL-2 melanoma): 2.12 µM
TGI (SK-MEL-2 melanoma): 4.74 µM
GI50 (SK-MEL-28 melanoma): 1.85 µM
TGI (SK-MEL-28 melanoma): 3.77 µM
GI50 (SK-MEL-5 melanoma): 2.36 µM
TGI (SK-MEL-5 melanoma): 6.69 µM
GI50 (SK-OV-3 ovarian): 10.5 µM
TGI (SK-OV-3 ovarian): > 100 µM
GI50 (SN12C renal): 3.02 µM
TGI (SN12C renal): 11.1 µM
GI50 (SNB-75 CNS): 1.2 µM
TGI (SNB-75 CNS): 12.2 µM
GI50 (SR leukemia): 2.79 µM
TGI (SR leukemia): > 100 µM
GI50 (SW-620 colon): 2.14 µM
TGI (SW-620 colon): 4.44 µM
GI50 (T-47D breast): 2.68 µM
TGI (T-47D breast): 11.3 µM
GI50 (TK-10 renal): 2.73 µM
TGI (TK-10 renal): 8.11 µM
GI50 (U251 CNS): 1.54 µM
TGI (U251 CNS): 2.99 µM
GI50 (UACC-257 melanoma): 3.2 µM
TGI (UACC-257 melanoma): 14.7 µM
GI50 (UACC-62 melanoma): 1.74 µM
TGI (UACC-62 melanoma): 4.3 µM
GI50 (UO-31 renal): 1.42 µM
TGI (UO-31 renal): 2.93 µM
